From patent US7012098B2, “Inhibitors of inducible nitric oxide synthase for chemoprevention and treatment of cancers” (Pharmacia Corporation, priority 2001, dated 2006)
Counter-ions that a name gives are not always drawn.

Tested on: AOM-induced colonic ACF
Test: Chemopreventive effects in rats with azoxymethane-induced aberrant crypt foci
Format: in vivo, male F344 rats
Details: for Foci containing 1 Crypt / Foci containing 2 Crypt / Foci containing 3 Crypt / Foci containing ≧4 Crypts / Total ACF incidence: AOM-treated male F344 rats, Mean ± SEM
Source text: In Vivo Assay of Chemopreventive Effects of Therapeutic Compounds in Rats with Azoxymethane-induced Aberrant Crypt Foci
Azoxymethane (AOM) (CAS:25843-45-2) was purchased from Ash Stevens (Detroit, Mich.). iNOS and COX-2 selective inhibitors were provided by Pharmacia, (St. Louis, […].). Sulindac, a non-selective inhibitor of COX-isoforms and a known inhibitor of colon carcinogenesis, was supplied by the Chemoprevention Branch of the National Cancer Institute (Bethesda, Md.). Weanling male F344 rats were purchased from Charles River Breeding Laboratories (Kingston, N.Y.). All ingredients of the semipurified diet were obtained from Dyets Inc., (Bethlehem, Pa.) and were stored at 4° C. until the experimental diets were prepared. The rats were held in quarantine for 1 week and had access to modified AIN-76A semipurified control diet (Reddy et al., Cancer Res. 50: 2562-2568, 1990, which is herein incorporated by reference.). They were randomly distributed into various dietary groups and were transferred to an animal holding room where they were housed, three rats to a plastic cage, under controlled conditions of a 12-h light/12-h dark cycle, 50% relative humidity and 21° C. room temperature. Experimental diets were prepared by mixing chemopreventive agents with modified AIN-76A control diet.
To quantify aberrant crypt foci, after a minimum of 24 h in buffered formalin, the colons were cut into 2-cm segments starting at the anus; for the next 5-10 min they were placed in a Petri dish containing 0.2% methylene blue in Krebs Ringer solution. They were then placed, mucosal side up, on a microscope slide and observed through a light microscope. Aberrant crypt foci were recorded according to standard procedures that are being used routinely in our laboratory (Rao et al., Carcinogenesis 21: 617-21, 2000; Rao et al., Cancer Res. 53:4182-88, 1993, which are herein incorporated by reference.). […] The parameters used to assess the aberrant crypts were their occurrence and multiplicity. Crypt multiplicity was determined as the number of crypts in each focus and categorized as containing up to 3, or 4 or more aberrant crypts/focus.

## CC(=N)NCCCC[C@H](N)C(=O)Nc1nnn[nH]1 [compound XI, 2S-amino-6-[(1-iminoethyl)amino]-N-(1H-tetrazol-5-yl)hexanamide, hydrate, dihydrochloride]
10 ppm in diet
  Foci containing 1 Crypt: 28.2 ± 1.8
  Foci containing 2 Crypt: 31.7 ± 2.7
  Foci containing 3 Crypt: 29.3 ± 2.3
  Foci containing ≧4 Crypts: 25.6 ± 1.8
  Total ACF incidence: 115 ± 4.8
30 ppm in diet
  Foci containing 1 Crypt: 28.7 ± 2.9
  Foci containing 2 Crypt: 32.6 ± 1.8
  Foci containing 3 Crypt: 24.8 ± 1.7
  Foci containing ≧4 Crypts: 22 ± 2.7
  Total ACF incidence: 108 ± 5.5
100 ppm in diet
  Foci containing 1 Crypt: 28.6 ± 2.2
  Foci containing 2 Crypt: 33.6 ± 2.1
  Foci containing 3 Crypt: 17.7 ± 1.1
  Foci containing ≧4 Crypts: 13.9 ± 1.1
  Total ACF incidence: 93.8 ± 4.2
100 ppm, compared to control diet
  effect on AOM-induced total colonic ACF and multicrypt clusters of 4 or more crypts: suppressed
